Assay results reported in ChEMBL document CHEMBL6121005 (Eur J Med Chem, 2025).
Active and inactive are the calls of the source. No cut-off for these calls is given here.

What was measured:
[1] = Acute toxicity in male ICR mouse assessed as microscopic spleen damage at 100 to 1000 mg/kg, po administered for 14 days by hematoxylin and eosin staining based assay; assay type: organism-based; conditions: in vivo, 336 h, dose 100-1000 mg/kg, time 14 day
[2] = Acute toxicity in male ICR mouse assessed as microscopic brain damage at 100 to 1000 mg/kg, po administered for 14 days by hematoxylin and eosin staining based assay; assay type: organism-based; conditions: in vivo, 336 h, dose 100-1000 mg/kg, time 14 day
[3] = tested on: Mus musculus; test: Antialzheimer activity in scopolamine- induced ICR mouse assessed as increase in time spent within target quadrant at 2.5 to 10 mg/kg, po administered daily and measured after 16 to 20 days by Morris water maze test; assay type: functional, organism-based; conditions: dose 2.5-10 mg/kg, time 16-20 day
[4] = tested on: Mus musculus; test: Antialzheimer activity in amyloid beta (1 to 42 residues) induced ICR mouse memory impairment model assessed as increase in trajectory after platform removal at 2.5 to 10 mg/kg, po administered daily and measured after 15 to 19 days by Morris water maze test; assay type: functional, organism-based; conditions: dose 2.5-10 mg/kg, time 15-19 day
[5] = tested on: Mus musculus; test: Antialzheimer activity against amyloid beta (1 to 42)-induced ICR mouse memory impairment model assessed as mean escape latency at 2.5 to 10 mg/kg, po administered daily and measured after 15 to 19 days by Morris water maze test; assay type: functional, organism-based; conditions: dose 2.5-10 mg/kg, time 15-19 day
[6] = Acute toxicity in male ICR mouse assessed as effect on body weight at 100 to 1000 mg/kg, po administered for 14 days; assay type: organism-based; conditions: in vivo, 336 h, dose 100-1000 mg/kg, time 14 day
[7] = Inhibition of H2O2-induced ROS release in rat PC12 cells assessed as mean fluorescence intensity at 50 uM preincubated for 2 hrs followed by H2O2 addition and measured after 24 hrs by DCFH-DA based flow cytometry analysis (reference value: 23904); assay type: functional, PC-12; conditions: time 26 hrs
[8] = tested on: PC-12; test: Antioxidant activity against H2O2-induced toxicity in rat PC12 cells at 12.5 uM preincubated for 2 hrs and measured after 24 hrs by CCK-8 assay; assay type: functional, cell-based; conditions: time 26.0 hrs
[9] = tested on: PC-12; test: Neuroprotective activity against H2O2-induced rat PC12 cells assessed as protection against H2O2-induced apoptosis by measuring necrotic cells at 50 uM pretreated for 2 hrs followed by H2O2 addition and measured after 24 hrs by Annexin V-FITC/PI staining based flow cytometry analysis (reference value: 0.99 %); assay type: functional; conditions: time 26 hrs
[10] = Acute toxicity in male ICR mouse assessed as microscopic lungs damage at 100 to 1000 mg/kg, po administered for 14 days by hematoxylin and eosin staining based assay; assay type: organism-based; conditions: in vivo, 336 h, dose 100-1000 mg/kg, time 14 day
[11] = biological target: T1, Cholinesterase (Homo sapiens, UniProt P06276); test: Inhibition of human serum BuChE using butyrylthiocholine iodide as substrate incubated for 10 mins followed by substrate addition by DTNB reagent based Ellman's method
[12] = tested on: Mus musculus; test: Antialzheimer activity in scopolamine-induced ICR mouse assessed as increase in trajectory within target quadrant at 2.5 to 10 mg/kg, po administered daily and measured after 16 to 20 days by Morris water maze test; assay type: functional, organism-based; conditions: dose 2.5-10 mg/kg, time 16-20 day
[13] = tested on: Mus musculus; test: Antialzheimer activity in scopolamine- induced ICR mouse assessed as increase in distance travelled within target quadrant at 2.5 to 10 mg/kg, po administered daily and measured after 16 to 20 days by Morris water maze test; assay type: functional, organism-based; conditions: dose 2.5-10 mg/kg, time 16-20 day
[14] = tested on: PC-12; test: Cytoprotective against rat PC12 cells assessed as cell viability at 50 uM preincubated for 24 hrs and measured after 4 hrs by CCK-8 assay; assay type: functional, cell-based
[15] = tested on: PC-12; test: Neuroprotective activity against H2O2-induced rat PC12 cells assessed as protection against H2O2-induced apoptosis by measuring viable cells at 50 uM pretreated for 2 hrs followed by H2O2 addition and measured after 24 hrs by Annexin V-FITC/PI staining based flow cytometry analysis (reference value: 90.8 %); assay type: functional; conditions: time 26 hrs
[16] = tested on: Mus musculus; test: Antialzheimer activity against amyloid beta (1 to 42)-induced ICR mouse cognitive deficit model assessed as increase in alternation performance at 10 mg/kg, po administered daily and measured on day 12 by Y-maze test relative to control; assay type: functional; conditions: time 12 day
[17] = tested on: Mus musculus; test: Antialzheimer activity in scopolamine-induced temporary memory and cognitive impairment ICR mouse model assessed as alternation performance at 2.5 to 5 mg/kg, po administered daily and measured on day 15 by Y-maze test; assay type: functional, organism-based; conditions: dose 2.5-5 mg/kg, time 15.0 day
[18] = tested on: Mus musculus; test: Antialzheimer activity against amyloid beta (1 to 42)-induced ICR mouse memory impairment model assessed as decrease in movement distance at 2.5 to 10 mg/kg, po administered daily and measured after 15 to 19 days by Morris water maze test; assay type: functional, organism-based; conditions: dose 2.5-10 mg/kg, time 15-19 day
[19] = tested on: Mus musculus; test: Antialzheimer activity in scopolamine-induced temporary memory and cognitive impairment ICR mouse model assessed as increase in step-through latency time at 2.5 to 10 mg/kg, po administered daily and measured on day 13 and 14 by step-through passive avoidance test; assay type: functional, organism-based; conditions: dose 2.5-10 mg/kg, time 13-14 day
[20] = tested on: Mus musculus; test: Antialzheimer activity against amyloid beta (1 to 42)-induced ICR mouse cognitive deficit model assessed as increase in alternation performance at 5 mg/kg, po administered daily and measured on day 12 by Y-maze test relative to control; assay type: functional; conditions: time 12 day
[21] = Acute toxicity in male ICR mouse assessed as microscopic liver damage at 100 to 1000 mg/kg, po administered for 14 days by hematoxylin and eosin staining based assay; assay type: organism-based; conditions: in vivo, 336 h, dose 100-1000 mg/kg, time 14 day
[22] = tested on: Mus musculus; test: Antialzheimer activity against scopolamine-induced ICR mouse cognitive deficit model assessed as latency time at 2.5 to 10 mg/kg, po administrated daily and measured on initial day of training by Morris water maze test; assay type: functional; conditions: dose 2.5-10 mg/kg
[23] = biological target: Acetylcholinesterase (Homo sapiens, UniProt P22303); test: Inhibition of human erythrocytes AChE measured after 10 mins by Ellman's method
[24] = tested on: Mus musculus; test: Antialzheimer activity against amyloid beta (1 to 42)-induced ICR mouse cognitive deficit model assessed as increase in step-through latency time at 5 to 10 mg/kg, po administered daily and measured on day 13 and 14 by step-through passive avoidance test; assay type: functional, organism-based; conditions: dose 5-10 mg/kg, time 13-14 day
[25] = biological target: T1, Cholinesterase; test: Inhibition of human serum BuChE using butyrylthiocholine iodide as substrate at 10 uM incubated for 10 mins followed by substrate addition by DTNB reagent based Ellman's method relative to control
[26] = Cytotoxicity against rat PC12 cells assessed as cell viability at 50 uM preincubated for 24 hrs and measured after 4 hrs by CCK-8 assay; assay type: toxicity, cell-based, PC-12; conditions: time 28 hrs, read-out: Activity
[27] = tested on: PC-12; test: Neuroprotective activity against H2O2-induced rat PC12 cells assessed as protection against H2O2-induced apoptosis by measuring late apoptotic cells at 50 uM pretreated for 2 hrs followed by H2O2 addition and measured after 24 hrs by Annexin V-FITC/PI staining based flow cytometry analysis (reference value: 7.26 %); assay type: functional; conditions: time 26 hrs
[28] = Acute toxicity in male ICR mouse assessed as microscopic kidneys damage at 100 to 1000 mg/kg, po administered for 14 days by hematoxylin and eosin staining based assay; assay type: organism-based; conditions: in vivo, 336 h, dose 100-1000 mg/kg, time 14 day
[29] = tested on: Mus musculus; test: Antialzheimer activity in amyloid beta (1 to 42 residues) induced ICR mouse assessed as increase in distance travelled within target quadrant at 2.5 to 5 mg/kg, po administered daily and measured after 15 to 19 days by Morris water maze test; assay type: functional, organism-based; conditions: dose 2.5-5 mg/kg, time 15-19 day
[30] = tested on: Mus musculus; test: Antialzheimer activity against scopolamine-induced ICR mouse cognitive deficit model assessed as decrease in latency time at 2.5 to 10 mg/kg, po administrated daily and measured on last day of training by Morris water maze test; assay type: functional, organism-based; conditions: dose 2.5-10 mg/kg
[31] = Acute toxicity in male ICR mouse assessed as microscopic heart damage at 100 to 1000 mg/kg, po administered for 14 days by hematoxylin and eosin staining based assay; assay type: organism-based; conditions: in vivo, 336 h, dose 100-1000 mg/kg, time 14 day
[32] = tested on: Mus musculus; test: Antialzheimer activity in scopolamine-induced temporary memory and cognitive impairment ICR mouse model assessed as alternation performance at 10 mg/kg, po administered daily and measured on day 15 by Y-maze test; assay type: functional, organism-based; conditions: time 15.0 day
[33] = tested on: Mus musculus; test: Antialzheimer activity against scopolamine-induced ICR mouse cognitive deficit model assessed as decrease in movement distance at 2.5 to 10 mg/kg, po administrated daily and measured on last day of training by Morris water maze test; assay type: functional, organism-based; conditions: dose 2.5-10 mg/kg
[34] = Acute toxicity in male ICR mouse assessed as mortality at 100 to 1000 mg/kg, po administered as single dose for 14 days; assay type: organism-based; conditions: in vivo, 336 h, dose 100-1000 mg/kg, time 14 day
[35] = tested on: PC-12; test: Neuroprotective activity against H2O2-induced rat PC12 cells assessed as protection against H2O2-induced apoptosis by measuring early apoptotic cells at 50 uM pretreated for 2 hrs followed by H2O2 addition and measured after 24 hrs by Annexin V-FITC/PI staining based flow cytometry analysis (reference value: 0.88 %); assay type: functional; conditions: time 26 hrs
[36] = tested on: Mus musculus; test: Antialzheimer activity against amyloid beta (1 to 42)-induced ICR mouse cognitive deficit model assessed as increase in alternation performance at 2.5 mg/kg, po administered daily and measured on day 12 by Y-maze test relative to control; assay type: functional; conditions: time 12 day
[37] = tested on: Mus musculus; test: Antialzheimer activity in amyloid beta (1 to 42 residues) induced ICR mouse assessed as increase in time spent within target quadrant at 2.5 to 5 mg/kg, po administered daily and measured after 15 to 19 days by Morris water maze test; assay type: functional, organism-based; conditions: dose 2.5-5 mg/kg, time 15-19 day

T1 sequence (P06276 whole entry): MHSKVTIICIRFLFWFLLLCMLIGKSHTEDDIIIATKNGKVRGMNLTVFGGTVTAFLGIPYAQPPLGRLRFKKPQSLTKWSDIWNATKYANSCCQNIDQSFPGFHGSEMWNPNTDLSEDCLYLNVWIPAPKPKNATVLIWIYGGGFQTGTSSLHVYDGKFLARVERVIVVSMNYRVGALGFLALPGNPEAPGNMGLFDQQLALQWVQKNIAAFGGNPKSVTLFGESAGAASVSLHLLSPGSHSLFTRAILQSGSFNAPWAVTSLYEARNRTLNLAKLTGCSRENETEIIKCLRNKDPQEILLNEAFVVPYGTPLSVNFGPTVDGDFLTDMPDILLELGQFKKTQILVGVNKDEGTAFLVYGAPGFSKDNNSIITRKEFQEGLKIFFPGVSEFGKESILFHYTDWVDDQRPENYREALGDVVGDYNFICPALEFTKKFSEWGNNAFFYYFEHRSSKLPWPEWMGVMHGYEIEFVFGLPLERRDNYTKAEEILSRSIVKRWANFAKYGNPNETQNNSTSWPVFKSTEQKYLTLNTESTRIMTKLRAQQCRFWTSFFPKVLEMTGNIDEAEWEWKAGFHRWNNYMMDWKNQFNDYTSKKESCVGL
Acetylcholinesterase, sequence (P22303 whole entry): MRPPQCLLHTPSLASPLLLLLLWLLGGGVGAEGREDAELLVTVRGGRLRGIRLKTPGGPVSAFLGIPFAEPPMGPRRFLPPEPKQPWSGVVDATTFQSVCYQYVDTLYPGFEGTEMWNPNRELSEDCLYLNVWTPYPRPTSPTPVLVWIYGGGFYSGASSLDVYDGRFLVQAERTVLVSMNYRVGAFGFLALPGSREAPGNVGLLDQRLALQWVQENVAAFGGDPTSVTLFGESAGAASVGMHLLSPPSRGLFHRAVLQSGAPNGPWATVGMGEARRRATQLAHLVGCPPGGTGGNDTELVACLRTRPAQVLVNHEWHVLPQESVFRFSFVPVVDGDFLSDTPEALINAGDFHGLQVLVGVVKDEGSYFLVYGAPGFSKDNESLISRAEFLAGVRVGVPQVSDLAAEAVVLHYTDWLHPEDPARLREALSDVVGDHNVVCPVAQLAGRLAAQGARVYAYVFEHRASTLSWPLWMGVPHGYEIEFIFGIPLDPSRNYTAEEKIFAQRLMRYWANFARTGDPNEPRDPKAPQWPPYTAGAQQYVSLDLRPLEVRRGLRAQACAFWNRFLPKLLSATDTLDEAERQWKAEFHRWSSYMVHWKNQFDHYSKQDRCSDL

COc1ccc2c3c1O[C@H]1C[C@@H](OCc4ccc(Cc5ccccc5F)cn4)C=C[C@@]31CCN(C)C2
Activity [1]: Non-toxic
Activity [2]: Non-toxic
Activity [3]: Dose-dependent-effect
Activity [4]: Active
Activity [5]: Active
Activity [6]: Non-toxic
Flu intensity [7]: 41314
Activity [8]: Dose-dependent-effect
Activity [9]: 1.21%
Activity [10]: Non-toxic
IC50 [11]: 358 nM
Activity [12]: Active
Activity [13]: Dose-dependent-effect
Activity [14]: Active
Activity [15]: 86%
Activity [16]: 76.91%
Activity [17]: Active
Activity [18]: Active
Activity [19]: Dose-dependent-effect
Activity [20]: 73.56%
Activity [21]: Non-toxic
Time [22]: 60 s
IC50 [23]: 514 nM
Activity [24]: Active
inhibition [25]: 96.5%
viability at 4 h, 50 µM [26]: > 90%
Activity [27]: 7.35%
Activity [28]: Non-toxic
Activity [29]: Active
Activity [30]: Active
Activity [31]: Non-toxic
Activity [32]: inactive
Activity [33]: Active
Activity [34]: Non-toxic
Activity [35]: 5.42%
Activity [36]: 72.91%
Activity [37]: Active
